From patent US7179800B2 (priority 2002, dated 2007)

Biological target: T1, CB2 receptor (Homo sapiens, UniProt P34972)
T1 construct: expressed in transfected cells; host or cells: CHO cells, G418-selected transfected line
Assay: CB2 binding procedure: displacement of [3H]CP-55,940 from membranes of transfected CHO cells
Details: for CB1/CB2 (ratio of Ki): CB1 Ki divided by CB2 Ki; for Ki: means ± SEM, [3H]CP-55,940, transfected CHO cell membranes, read-out: Ki (nM) CB2; for fold decrease in CB2 affinity: relative to the comparator analog

T1 sequence (P34972 whole entry): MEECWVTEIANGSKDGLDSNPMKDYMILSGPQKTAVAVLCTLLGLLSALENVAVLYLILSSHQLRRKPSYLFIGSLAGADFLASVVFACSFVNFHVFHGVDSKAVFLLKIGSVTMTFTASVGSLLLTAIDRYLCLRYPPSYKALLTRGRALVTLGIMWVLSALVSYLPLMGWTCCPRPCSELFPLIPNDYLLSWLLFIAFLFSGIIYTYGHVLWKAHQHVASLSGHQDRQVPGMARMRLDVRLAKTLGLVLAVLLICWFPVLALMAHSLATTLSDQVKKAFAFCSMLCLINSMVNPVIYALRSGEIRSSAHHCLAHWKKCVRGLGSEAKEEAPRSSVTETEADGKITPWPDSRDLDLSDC

| SMILES | CB1/CB2 (ratio of Ki) | Ki | fold decrease in CB2 affinity |
| --- | --- | --- | --- |
| CCCCCCC(C)(C)c1cc(O)c(C2CCSC2)c(O)c1 (stereo not drawn) [O-1661, 2-(Tetrahydrothiophen-3-yl)-5-(1′,1′-dimethylheptyl)-re-sorcinol] | 5 | 28 ± 12 nM |  |
| CCCCCCC(C)(C)c1cc(O)c(C2CCCCC2C)c(O)c1 (stereo not drawn) [O-1658, 2-(2-Methylcyclohexyl)-5-(1′,1′-dimethylheptyl)-resorcinol] | 16 | 1 ± 0.3 nM |  |
| CCCCCCC(C)(C)c1cc(O)c(C2CCSCC2)c(O)c1 [O-1425] | 13 | 12 ± 2 nM | 8 fold |
| CCCC(C)(C)c1cc(O)c(C2CCCC(C)C2)c(O)c1 (stereo not drawn) [O-1890, 2-(3-Methylcyclohexyl)-5-(1′,1′-dimethylbutyl)-resorcinol] | 7 | 13 ± 1 nM |  |
| CCCCCCC(C)(C)c1cc(O)c(C2CCCC(C)C2)c(O)c1 (mixture of isomers) [O-1657, 2-(3-Methylcyclohexyl)-5-(1′,1′-dimethylheptyl)-resorcinol] | 17 | 0.8 ± 0.04 nM |  |
| CCCCCCC(C)(C)c1cc(O)c([C@H]2CCCC(C)C2)c(O)c1 (single isomer, unassigned) [O-1826] | 50 | 0.8 ± 0.05 nM |  |
| CCCCCCC(C)(C)c1cc(O)c(C2CCC(C)CC2)c(O)c1 (stereo not drawn) [O-1659, 2-(4-Methylcyclohexyl)-5-(1′,1′-dimethylheptyl)-resorcinol] | 9 | 5 ± 0.9 nM | about 5 fold |
| CCCCCCC(C)(C)c1cc(O)c(C2C3CC4CC(C3)CC2C4)c(O)c1 (stereo not drawn) [O-1660, 2-(2-Adamantyl)-5-(1′,1′-di-methylheptyl)-resorcinol] | 2 | 3 ± 0.8 nM |  |
| CCCCCCC(C)(C)c1cc(O)c(C2=CCCCC2)c(O)c1 [O-1423] | 3 | 28 ± 5 nM |  |
| CCCCCCC(C)(C)c1ccc(-c2cc(C)ccc2C(C)C)c(O)c1 [O-1376, 3-1′,1′-Dimethylheptyl-6-(2-isopropyl-5-methylphenyl)phenol] | 11 | 3 ± 0.4 nM |  |
| CCCCCCC(C)(C)c1cc(O)c(C2CCCCC2)c(O)c1 [O-1422, Cyclohexyl-5-(1′,1′-dimethylheptyl)-resorcinol] | 7 | 1.5 ± 0.1 nM |  |
